In US20170107207A1, “AMINOPYRAZOLONE DERIVATIVE” (DAIICHI SANKYO COMPANY, LIMITED, priority 2014, published 2017):
pIC50: −log10 of the molar value.

Assays:
[1] = tested on: human lymphoma cell line RAMOS cells; assay: Cell growth inhibition test using RAMOS cell, ATP assay (CellTiter-Glo); type: cell-based; conditions: Homo sapiens, Ramos, 72 h, cultured 3 days, 50% growth inhibition concentration
In short: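 RAMOS cells seeded at 4000 cells/well with compound and cultured 3 days at 37° C, 5% CO2; viability by CellTiter-Glo luminescence. Growth rate T/C % = 100×[(B−C)/(A−C)] using day-0 and final readings; GI50 interpolated from the two concentrations bracketing 50% growth.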

[2] = target: T1, TIP48/TIP49 complex (Homo sapiens, UniProt Q9Y230+Q9Y265); assay: ATPase assay of TIP48/TIP49 complex (ADP-Glo); type: biochemical; conditions: concentration at which the ATPase activity was inhibited by 50%
T1 construct: made in house; host or cells: E. coli
In short: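 Recombinant human TIP48 and TIP49 expressed in E. coli (24.5 μg/mL final) were incubated 1.5 h at room temperature with compound (0.0007–200 μM, 2% DMSO) in Tris-HCl pH 7.5 buffer containing MgCl2 and ATP. ADP formed was detected by ADP-Glo luminescence; inhibition came from dose-response curves.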

T1 sequence (Q9Y230 whole entry): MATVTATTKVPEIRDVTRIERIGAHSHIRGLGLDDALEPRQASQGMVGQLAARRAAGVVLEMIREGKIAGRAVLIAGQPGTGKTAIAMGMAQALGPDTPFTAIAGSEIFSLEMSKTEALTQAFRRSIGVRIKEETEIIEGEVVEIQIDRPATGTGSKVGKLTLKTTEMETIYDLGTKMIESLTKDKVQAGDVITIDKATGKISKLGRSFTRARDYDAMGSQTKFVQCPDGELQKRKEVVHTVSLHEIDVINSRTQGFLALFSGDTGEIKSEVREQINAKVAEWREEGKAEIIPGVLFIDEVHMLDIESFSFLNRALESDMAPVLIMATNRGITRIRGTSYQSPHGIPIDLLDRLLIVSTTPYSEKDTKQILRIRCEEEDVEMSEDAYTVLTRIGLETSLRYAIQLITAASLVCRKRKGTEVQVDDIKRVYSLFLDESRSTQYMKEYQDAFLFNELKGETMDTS
T1 sequence (Q9Y265 whole entry): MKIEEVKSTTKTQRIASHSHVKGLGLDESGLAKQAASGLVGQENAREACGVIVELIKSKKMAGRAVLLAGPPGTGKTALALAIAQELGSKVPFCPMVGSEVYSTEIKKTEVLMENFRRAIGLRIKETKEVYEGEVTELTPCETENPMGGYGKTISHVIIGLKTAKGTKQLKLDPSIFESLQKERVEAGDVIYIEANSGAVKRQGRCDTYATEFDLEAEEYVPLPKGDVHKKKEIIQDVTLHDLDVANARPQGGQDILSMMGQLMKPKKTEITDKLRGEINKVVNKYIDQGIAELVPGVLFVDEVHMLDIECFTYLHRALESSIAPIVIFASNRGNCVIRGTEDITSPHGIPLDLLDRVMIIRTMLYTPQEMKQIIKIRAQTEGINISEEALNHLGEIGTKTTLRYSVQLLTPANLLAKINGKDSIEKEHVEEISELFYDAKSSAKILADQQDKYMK

SMILES	GI50 [1] [nM]	pIC50 [2]
CCOc1ccc(Cl)cc1C(=O)NCC(C)(C)CC(=O)Nc1c(CCCC(=O)N(C)C)n(C)n(-c2ccccc2)c1=O [Example 129, 5-Chloro-N-[4-({5-[4-(dimethylamino)-4-oxobutyl]-1-methyl-3-oxo-2-phenyl-2,3-dihydro-1H-pyrazol-4-yl}amino)-2,2-dimethyl-4-oxobutyl]-2-ethoxybenzamide]	190	7.28
CCOc1ccc(Cl)cc1C(=O)NCC(C)(C)CC(=O)Nc1c(CC(C)(C)N)n(C)n(-c2ccccc2)c1=O [Example 55, N-(4-{[5-(2-Amino-2-methylpropyl)-1-methyl-3-oxo-2-phenyl-2,3-dihydro-1H-pyrazol-4-yl]amino}-2,2-dimethyl-4-oxobutyl)-5-chloro-2-ethoxybenzamide]	170	7.37
CCOc1ccc(Cl)cc1C(=O)NCC(C)(C)CC(=O)Nc1c(CCNCC(F)(F)F)n(C)n(-c2ccccc2)c1=O [Example 26, 5-Chloro-N-[2,2-dimethyl-4-({1-methyl-3-oxo-2-phenyl-5-[2-(2,2,2-trifluoroethylamino)ethyl]pyrazol-4-yl}amino)-4-oxobutyl]-2-ethoxybenzamide]	130	7.48
CCOc1ccc(Cl)cc1C(=O)NCC(C)(C)CC(=O)Nc1c(C(CN(C)C)OC)n(C)n(-c2ccccc2)c1=O (stereo not shown) [Example 79, 5-Chloro-N-[4-({5-[2-(dimethylamino)-1-methoxyethyl]-1-methyl-3-oxo-2-phenyl-2,3-dihydro-1H-pyrazol-4-yl}amino)-2,2-dimethyl-4-oxobutyl]-2-ethoxybenzamide]	140	7.29
CCOc1ccc(Cl)cc1C(=O)NCC(C)(C)CC(=O)Nc1c(C(C)NC)n(C)n(-c2ccccc2)c1=O (stereo not shown) [Example 1, 5-Chloro-N-[2,2-dimethyl-4-({1-methyl-5-[1-(methylamino)ethyl]-3-oxo-2-phenyl-2,3-dihydro-1H-pyrazol-4-yl}amino)-4-oxobutyl]-2-ethoxybenzamide]	130	6.77
Cc1cc2cc(Cl)cc(C(=O)NCC(C)(C)CC(=O)Nc3c(C[C@@H](C)N(C)C)n(C)n(-c4ccccc4)c3=O)c2o1 [Example 50, 5-Chloro-N-[4-({5-[(2R)-2-(dimethylamino)propyl]-1-methyl-3-oxo-2-phenyl-2,3-dihydro-1H-pyrazol-4-yl}amino)-2,2-dimethyl-4-oxobutyl]-2-methylbenzofuran-7-carboxamide]	210	7.30
CCOc1cc(F)c(Cl)cc1C(=O)NCC(C)(C)CC(=O)Nc1c([C@H](C)CN(C)C)n(C)n(-c2ccccc2)c1=O [Example 70, 5-Chloro-N-[4-({5-[(1R)-2-(dimethylamino)-1-methylethyl]-1-methyl-3-oxo-2-phenyl-2,3-dihydro-1H-pyrazol-4-yl}amino)-2,2-dimethyl-4-oxobutyl]-2-ethoxy-4-fluorobenzamide]	160	7.08
CCOc1cc(F)c(Cl)cc1C(=O)NCC(C)(C)CC(=O)Nc1c(C)n(C)n(-c2ccccc2)c1=O [Example 92, 5-Chloro-N-{4-[(1,5-dimethyl-3-oxo-2-phenyl-2,3-dihydro-1H-pyrazol-4-yl)amino]-2,2-dimethyl-4-oxobutyl}-2-ethoxy-4-fluorobenzamide]	560	7.59
CCOc1ncc(Cl)cc1C(=O)NCC(C)(C)CC(=O)Nc1c(C(C)CNC)n(C)n(-c2ccccc2)c1=O (stereo not shown) [Example 77, 5-Chloro-N-[2,2-dimethyl-4-({1-methyl-5-[1-methyl-2-(methylamino)ethyl]-3-oxo-2-phenyl-2,3-dihydro-1H-pyrazol-4-yl}amino)-4-oxobutyl]-2-ethoxypyridine-3-carboxamide]	800	7.04
CCOc1ccc(Cl)cc1C(=O)NCC(C)(C)CC(=O)Nc1c(CCC(=O)N2CCCC2)n(C)n(-c2ccccc2)c1=O [Example 133, 5-Chloro-N-(2,2-dimethyl-4-{[1-methyl-3-oxo-5-(3-oxo-3-pyrrolidin-1-ylpropyl)-2-phenyl-2,3-dihydro-1H-pyrazol-4-yl]amino}-4-oxobutyl)-2-ethoxybenzamide]	500	7.09
CCOc1ccc(Cl)cc1NC(=O)CC1(CC(=O)Nc2c(CCN(C)C)n(C)n(-c3ccccc3)c2=O)CCCC1 [Example 32, N-(5-chloro-2-ethoxyphenyl)-2-{1-[2-({5-[2-(dimethylamino)ethyl]-1-methyl-3-oxo-2-phenyl-2,3-dihydro-1H-pyrazol-4-yl}amino)-2-oxoethyl]cyclopentyl}acetamide]	1300	6.89
CCOc1ncc(Cl)cc1C(=O)NCC(C)(C)CC(=O)Nc1c(C(C)CN(C)C)n(C)n(-c2ccccc2)c1=O (stereo not shown) [Example 71, 5-Chloro-N-[4-({5-[2-(dimethylamino)-1-methylethyl]-1-methyl-3-oxo-2-phenyl-2,3-dihydro-1H-pyrazol-4-yl}amino)-2,2-dimethyl-4-oxobutyl]-2-ethoxypyridine-3-carboxamide]	420	7.05
CCOc1cc(F)c(Cl)cc1C(=O)NCC(C)(C)CC(=O)Nc1c(C[C@@H](C)N(C)C)n(C)n(-c2ccccc2)c1=O [Example 49, 5-Chloro-N-[4-({5-[(2R)-2-(dimethylamino)propyl]-1-methyl-3-oxo-2-phenyl-2,3-dihydro-1H-pyrazol-4-yl}amino)-2,2-dimethyl-4-oxobutyl]-2-ethoxy-4-fluorobenzamide]	160	7.16
CCOc1ncc(Cl)cc1C(=O)NCC(C)(C)CC(=O)Nc1c(CCN(C)C)n(CC)n(-c2ccccc2)c1=O [Example 42, 5-Chloro-N-[4-({5-[2-(dimethylamino)ethyl]-1-ethyl-3-oxo-2-phenyl-2,3-dihydro-1H-pyrazol-4-yl}amino)-2,2-dimethyl-4-oxobutyl]-2-ethoxypyridine-3-carboxamide]	150	7.10
CCOc1cc(F)c(Cl)cc1C(=O)NCC(C)(C)CC(=O)Nc1c(C(C)OC)n(C)n(-c2ccccc2)c1=O (stereo not shown) [Example 122, 5-Chloro-2-ethoxy-4-fluoro-N-(4-{[5-(1-methoxyethyl)-1-methyl-3-oxo-2-phenyl-2,3-dihydro-1H-pyrazol-4-yl]amino}-2,2-dimethyl-4-oxobutyl)benzamide]	140	6.34
[2H]C([2H])([2H])N(CCc1c(NC(=O)CC(C)(C)CNC(=O)c2cc(Cl)ccc2OCC)c(=O)n(-c2ccccc2)n1C)C([2H])([2H])[2H] [Example 31, N-{4-[(5-{2-[bis(trideuteriomethyl)amino]ethyl}-1-methyl-3-oxo-2-phenyl-2,3-dihydro-1H-pyrazol-4-yl)amino]-2,2-dimethyl-4-oxobutyl}-5-chloro-2-ethoxybenzamide]	170	7.28
CCOc1ccc(Cl)cc1C(=O)NCC(C)(C)CC(=O)Nc1c(CC(=O)OC)n(C)n(-c2ccccc2)c1=O [Example 131, Methyl 2-[4-({4-[(5-chloro-2-ethoxybenzoyl)amino]-3,3-dimethylbutanoyl}amino)-2-methyl-5-oxo-1-phenyl-2,3-dihydro-1H-pyrazol-3-yl]acetate]	130	7.21
COCOc1ccc(Cl)cc1C(=O)NCC(C)(C)CC(=O)Nc1c(CCN(C)C)n(C)n(-c2ccccc2)c1=O [Example 28, 5-Chloro-N-[4-({5-[2-(dimethylamino)ethyl]1-methyl-3-oxo-2-phenyl-2,3-dihydro-1H-pyrazol-4-yl}amino)-2,2-dimethyl-4-oxobutyl]-2-(methoxymethoxy)benzamide]	200	7.32
CCOc1ncc(Cl)cc1C(=O)NCC(C)(C)CC(=O)Nc1c(C(CN(C)C)OC)n(C)n(-c2ccccc2)c1=O (stereo not shown) [Example 81, 5-Chloro-N-[4-({5-[2-(dimethylamino)-1-methoxyethyl]-1-methyl-3-oxo-2-phenyl-2,3-dihydro-1H-pyrazol-4-yl}amino)-2,2-dimethyl-4-oxobutyl]-2-ethoxypyridine-3-carboxamide]	410	6.68
Cc1cc2cc(Cl)cc(C(=O)NCC(C)(C)CC(=O)Nc3c(C[C@H](C)N(C)C)n(C)n(-c4ccccc4)c3=O)c2o1 [Example 54, 5-Chloro-N-[4-({5-[(2S)-2-(dimethylamino)propyl]-1-methyl-3-oxo-2-phenyl-2,3-dihydro-1H-pyrazol-4-yl}amino)-2,2-dimethyl-4-oxobutyl]-2-methylbenzofuran-7-carboxamide]	140	7.03
CN(C)CCc1c(NC(=O)CC(C)(C)CNC(=O)c2cc(Cl)cc3c2OCCO3)c(=O)n(-c2ccccc2)n1C [Example 16, 7-Chloro-N-[4-({5-[2-(dimethylamino)ethyl]-1-methyl-3-oxo-2-phenyl-2,3-dihydro-1H-pyrazol-4-yl}amino)-2,2-dimethyl-4-oxobutyl]-2,3-dihydro-1,4-benzodioxine-5-carboxamide]	570	7.17
CCOc1ccc(Cl)cc1C(=O)NCC(C)(C)CC(=O)Nc1c(CCN(C)C)n(C)n(-c2ccccc2F)c1=O [Example 45, 5-Chloro-N-[4-({3-[2-(dimethylamino)ethyl]-1-(2-fluorophenyl)-2-methyl-5-oxopyrazol-4-yl}amino)-2,2-dimethyl-4-oxobutyl]-2-ethoxybenzamide]	480	7.11
CCOc1ccc(Cl)cc1C(=O)NCC(C)(C)CC(=O)Nc1c(CCN(C)CCF)n(C)n(-c2ccccc2)c1=O [Example 36, 5-Chloro-2-ethoxy-N-{4-[(5-{2-[2-fluoroethyl(methyl)amino]ethyl}-1-methyl-3-oxo-2-phenyl-2,3-dihydro-1H-pyrazol-4-yl)amino]-2,2-dimethyl-4-oxobutyl}benzamide]	120	7.62
